Experiment: xn = mol fraction of the nth substance listed
Settings: 101.3 kPa, Liquid, Taylor dispersion method

Row | Structure (SMILES) | binary diffusion coefficient (298.15 K, x2 = 0) | binary diffusion coefficient (298.15 K, x2 = 0.03) | binary diffusion coefficient (298.15 K, x2 = 0.1) | binary diffusion coefficient (298.15 K, x2 = 0.3) | binary diffusion coefficient (298.15 K, x2 = 0.5) | binary diffusion coefficient (298.15 K, x2 = 0.7) | binary diffusion coefficient (298.15 K, x2 = 0.9) | binary diffusion coefficient (298.15 K, x2 = 0.97) | binary diffusion coefficient (298.15 K, x2 = 1) | also measured
1 | CO [methanol] + O | – | – | – | – | – | – | – | – | – | binary diffusion coefficient (298.15 K, x1 = 0): 1.57e-09 m2/s; binary diffusion coefficient (298.15 K, x1 = 0.1): 1.22e-09 m2/s; binary diffusion coefficient (298.15 K, x1 = 0.3): 9.5e-10 m2/s; binary diffusion coefficient (298.15 K, x1 = 0.5): 1.03e-09 m2/s; binary diffusion coefficient (298.15 K, x1 = 0.7): 1.37e-09 m2/s; binary diffusion coefficient (298.15 K, x1 = 0.9): 1.87e-09 m2/s; binary diffusion coefficient (298.15 K, x1 = 0.97): 2.05e-09 m2/s
2 | Cc1ccccc1 [toluene] + CCO | 3.12e-09 m2/s | 2.94e-09 m2/s | 2.41e-09 m2/s | 1.22e-09 m2/s | 9.8e-10 m2/s | 1.16e-09 m2/s | 1.55e-09 m2/s | 1.7e-09 m2/s | 1.74e-09 m2/s | binary diffusion coefficient (308.15 K, x2 = 0): 3.61e-09 m2/s; binary diffusion coefficient (308.15 K, x2 = 0.03): 3.4e-09 m2/s; binary diffusion coefficient (308.15 K, x2 = 0.1): 2.9e-09 m2/s; binary diffusion coefficient (308.15 K, x2 = 0.3): 1.7e-09 m2/s; binary diffusion coefficient (308.15 K, x2 = 0.5): 1.35e-09 m2/s; binary diffusion coefficient (308.15 K, x2 = 0.7): 1.59e-09 m2/s; binary diffusion coefficient (308.15 K, x2 = 0.9): 1.89e-09 m2/s; binary diffusion coefficient (308.15 K, x2 = 0.97): 2.04e-09 m2/s; binary diffusion coefficient (308.15 K, x2 = 1): 2.11e-09 m2/s
3 | CCCCCC [hexane] + CCO | 5.74e-09 m2/s | 4.07e-09 m2/s | 2.41e-09 m2/s | 1.54e-09 m2/s | 1.3e-09 m2/s | 1.3e-09 m2/s | 1.43e-09 m2/s | 1.54e-09 m2/s | 1.6e-09 m2/s | –
4 | CCO [ethanol] + O | – | – | – | – | – | – | – | – | – | binary diffusion coefficient (298.15 K, x1 = 0.1): 7e-10 m2/s; binary diffusion coefficient (298.15 K, x1 = 0.2): 4.1e-10 m2/s; binary diffusion coefficient (298.15 K, x1 = 0.3): 3.8e-10 m2/s; binary diffusion coefficient (298.15 K, x1 = 0.5): 5.1e-10 m2/s; binary diffusion coefficient (298.15 K, x1 = 0.7): 7.6e-10 m2/s; binary diffusion coefficient (298.15 K, x1 = 0.9): 1.08e-09 m2/s
5 | C1CCCCC1 [cyclohexane] + CCO | – | 9.9e-10 m2/s | 7.7e-10 m2/s | 4.3e-10 m2/s | 4.6e-10 m2/s | 7.3e-10 m2/s | 1.23e-09 m2/s | 1.41e-09 m2/s | – | –
6 | Cc1ccccc1 [toluene] + CCCO | 2.67e-09 m2/s | 2.37e-09 m2/s | 1.81e-09 m2/s | 1e-09 m2/s | 8.5e-10 m2/s | 1.01e-09 m2/s | 1.28e-09 m2/s | 1.4e-09 m2/s | 1.46e-09 m2/s | –
7 | ClC(Cl)(Cl)Cl [tetrachloromethane] + CCCO | 1.61e-09 m2/s | 8.3e-10 m2/s | 6.1e-10 m2/s | 3.9e-10 m2/s | 4.6e-10 m2/s | 6.6e-10 m2/s | 8.3e-10 m2/s | 9.1e-10 m2/s | 9.5e-10 m2/s | –
8 | ClC(Cl)(Cl)Cl [tetrachloromethane] + CCO | 1.9e-09 m2/s | 1.06e-09 m2/s | 8.2e-10 m2/s | 6.4e-10 m2/s | 7.3e-10 m2/s | 9.9e-10 m2/s | 1.32e-09 m2/s | 1.43e-09 m2/s | 1.47e-09 m2/s | binary diffusion coefficient (303.15 K, x2 = 0): 2.15e-09 m2/s; binary diffusion coefficient (303.15 K, x2 = 0.03): 1.6e-09 m2/s; binary diffusion coefficient (303.15 K, x2 = 0.1): 9.9e-10 m2/s; binary diffusion coefficient (303.15 K, x2 = 0.3): 8.3e-10 m2/s; binary diffusion coefficient (303.15 K, x2 = 0.5): 8.7e-10 m2/s; binary diffusion coefficient (303.15 K, x2 = 0.7): 1.14e-09 m2/s; binary diffusion coefficient (303.15 K, x2 = 0.9): 1.45e-09 m2/s; binary diffusion coefficient (303.15 K, x2 = 0.97): 1.56e-09 m2/s; binary diffusion coefficient (303.15 K, x2 = 1): 1.61e-09 m2/s; binary diffusion coefficient (308.15 K, x2 = 0): 2.24e-09 m2/s; binary diffusion coefficient (308.15 K, x2 = 0.03): 1.8e-09 m2/s; binary diffusion coefficient (308.15 K, x2 = 0.1): 1.1e-09 m2/s; binary diffusion coefficient (308.15 K, x2 = 0.3): 9.5e-10 m2/s; binary diffusion coefficient (308.15 K, x2 = 0.5): 9.9e-10 m2/s; binary diffusion coefficient (308.15 K, x2 = 0.7): 1.28e-09 m2/s; binary diffusion coefficient (308.15 K, x2 = 0.9): 1.6e-09 m2/s; binary diffusion coefficient (308.15 K, x2 = 0.97): 1.76e-09 m2/s; binary diffusion coefficient (308.15 K, x2 = 1): 1.82e-09 m2/s
9 | ClC(Cl)(Cl)Cl [tetrachloromethane] + CCCCO | 1.47e-09 m2/s | 7e-10 m2/s | 5e-10 m2/s | 2.9e-10 m2/s | 3.2e-10 m2/s | 5.4e-10 m2/s | 6.5e-10 m2/s | 6.9e-10 m2/s | 7.2e-10 m2/s | binary diffusion coefficient (308.15 K, x2 = 0): 1.74e-09 m2/s; binary diffusion coefficient (308.15 K, x2 = 0.03): 9.3e-10 m2/s; binary diffusion coefficient (308.15 K, x2 = 0.1): 7.1e-10 m2/s; binary diffusion coefficient (308.15 K, x2 = 0.3): 5.2e-10 m2/s; binary diffusion coefficient (308.15 K, x2 = 0.5): 5.6e-10 m2/s; binary diffusion coefficient (308.15 K, x2 = 0.7): 6.5e-10 m2/s; binary diffusion coefficient (308.15 K, x2 = 0.9): 8e-10 m2/s; binary diffusion coefficient (308.15 K, x2 = 0.97): 8.9e-10 m2/s; binary diffusion coefficient (308.15 K, x2 = 1): 9.4e-10 m2/s
10 | C1CCCCC1 [cyclohexane] + CCCO | – | 8.3e-10 m2/s | 6.6e-10 m2/s | 3.9e-10 m2/s | 4.2e-10 m2/s | 6.5e-10 m2/s | 1e-09 m2/s | 1.15e-09 m2/s | – | –
11 | CCCCCC [hexane] + CCCO | 5.2e-09 m2/s | 3.37e-09 m2/s | 2.17e-09 m2/s | 1.38e-09 m2/s | 1.15e-09 m2/s | 1.08e-09 m2/s | 1.09e-09 m2/s | 1.03e-09 m2/s | 1.02e-09 m2/s | –

From the NIST ThermoML archive (doi:10.1021/je0497303)
